Test systems include SF-539; SK-MEL-28; K562; OVCAR-8; CCRF-CEM; SNB-19; DMS-114; SK-OV-3; SK-MEL-2; XF498; SW-620; SF-268; LOX IMVI; M19-MEL; HOP-18; NCI-H23; U-251; KM-20L2; DMS-273; PC-3.
Holding throughout (assay): inhibition of tumour cell growth, NCI panel, 48 h

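Results reflect a 48-hour exposure of cells in 96-well plates to compound at five concentrations. The concentration for 50% growth inhibition is given as GI50.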 Calls of active or inactive are those of the source. No stated cut-off is given here; in the data, active = GI50 up to about 1.1 µM and inactive = higher.

As for `Oc1c(CNCCCN2CCCC2)cc(Cl)c2cccnc12`, the GI50 was 2.87 µM (inactive) in the assay with SF-539; 11.2 µM (inactive) in the assay with SK-MEL-28; 2.37 µM (inactive) with K562; 3.24 µM (inactive) with OVCAR-8; 2.34 µM (inactive) with CCRF-CEM; 6.46 µM (inactive) in the assay with SNB-19. The GI50 in the assay with DMS-114 was 3.05 µM (inactive); in the assay with SK-OV-3, 4.13 µM (inactive); in the assay on SK-MEL-2, 11.1 µM (inactive); in the assay with XF498, 2.56 µM (inactive); in the assay on SW-620 it was 4.01 µM (inactive); in the assay with SF-268, 3.27 µM (inactive). Also, the GI50 with LOX IMVI was 3.01 µM (inactive); with M19-MEL, 2.52 µM (inactive); in the assay with HOP-18, 4.95 µM (inactive); in the assay on NCI-H23, 11 µM (inactive); with U-251 it was 4.09 µM (inactive); in the assay on KM-20L2 it was 3.78 µM (inactive). Further, the GI50 in the assay on DMS-273 is 2.83 µM (inactive).

In the case of `Cc1cc(C)cc(Sc2c([N+](=O)[O-])ncn2C)c1`, the GI50 was 6.03 µM (inactive) with SF-539; 15.2 µM (inactive) in the assay on SK-MEL-28; 11.2 µM (inactive) in the assay on K562; 12.8 µM (inactive) in the assay with OVCAR-8; 15.6 µM (inactive) in the assay with CCRF-CEM; 25.7 µM (inactive) in the assay on SNB-19. Further, the GI50 is 12.2 µM (inactive) in the assay with DMS-114; 23.8 µM (inactive) in the assay with SK-OV-3; 10.6 µM (inactive) in the assay with SK-MEL-2; 16.6 µM (inactive) in the assay with XF498; 14 µM (inactive) with SW-620; 14.9 µM (inactive) with SF-268. For the same compound, the GI50 was 11.5 µM (inactive) in the assay with LOX IMVI; 22.6 µM (inactive) in the assay on M19-MEL; 1.28 µM (inactive) in the assay on HOP-18; 14.8 µM (inactive) in the assay with NCI-H23; 14.6 µM (inactive) with U-251; 35.2 µM (inactive) in the assay with KM-20L2. Further, the GI50 in the assay with DMS-273 is 8.09 µM (inactive).

In the case of `COc1cccc2c1C(=O)c1c(O)c3c(c(O)c1C2=O)C[C@@](O)(C(=O)CO)C[C@@H]3OC1CC(N2CCOCC2)C(O)C(C)O1` (stereo partly drawn), the GI50 in the assay on SF-539 is 0.0025 µM (active); in the assay with SK-MEL-28, 0.0027 µM (active); with K562 it was 0.0025 µM (active); in the assay on OVCAR-8 it was 0.0025 µM (active); in the assay on CCRF-CEM it was 0.00323 µM (active); with SNB-19 it was 0.0025 µM (active). Besides, the GI50 in the assay with DMS-114 is 0.0025 µM (active); in the assay on SK-OV-3, 0.00292 µM (active); in the assay with SK-MEL-2, 0.0025 µM (active); in the assay with XF498 it was 0.0025 µM (active); in the assay with SW-620 it was 0.00791 µM (active); in the assay on SF-268, 0.0239 µM (active). Besides, the GI50 with LOX IMVI is 0.0025 µM (active); in the assay with M19-MEL, 0.00552 µM (active); in the assay on HOP-18, 0.0034 µM (active); in the assay on NCI-H23, 0.00567 µM (active); in the assay with U-251, 0.0025 µM (active); with KM-20L2, 0.0025 µM (active). In addition, the GI50 in the assay with DMS-273 is 0.00409 µM (active); with PC-3 it was 0.033 µM (active).

The values above are taken from ChEMBL document CHEMBL1201862, “PubChem BioAssay data set” (2004).
